Measured values from US9326973B2, “Hepatitis C virus inhibitors” (priority 2012, dated 2016).

system: HCV replicon, genotype-1a variant with glutamine 30 changed to glutamate in the NS5A protein; test: microbe, parasite or virus in culture; type: cell-based, HCV genotype 1a; settings: HCV replicon genotype 1a Q30E (Q→E) variant; test compound titrated with an NS5A-targeting compound (BMS-790052 fixed at 200 nM); ranking of synergist activity
From the text: The NS5A synergistic inhibitory effect of test compounds can be determined using various amounts of an NS5A-targeting compound with titration of a second compound of interest. […] In one embodiment, the HCV genotype strain can be genotype 1a containing a change at amino acid 30 of the NS5A protein consisting of glutamine to glutamate. The test compound can be chosen from compounds listed above or from others present in the literature.

| SMILES | Fold-Synergistic 1a (Q30E) |
| --- | --- |
| Cc1cc(-c2ccc(-c3c[nH]c([C@@H](NC(=O)C4CC(F)(F)C4)C(C)C)n3)cc2)ccc1-c1c[nH]c([C@@H](NC(=O)C2CC(F)(F)C2)C(C)C)n1 [Compound N-78] | >100 fold |
| CC(C)(C)OC(=O)N1CCCC[C@H]1C(=O)N[C@H](c1nc(-c2ccc(-c3ccc(-c4c[nH]c([C@@H](NC(=O)[C@@H]5CCCCN5C(=O)OC(C)(C)C)C(C)(C)C)n4)cc3)cc2)c[nH]1)C(C)(C)C [Compound L-17] | >100 fold |
| CC(C)N(C(=O)C(=O)N[C@H](c1nc(-c2ccc(-c3ccc(-c4c[nH]c([C@@H](NC(=O)C(=O)N(C(C)C)C5CC5)C5CC5)n4)cc3)cc2)c[nH]1)C1CC1)C1CC1 [Compound L-36] | >100 fold |
| CC(C)(C)[C@H](NC(=O)C1CC(=O)c2ccccc2C1)c1nc(-c2ccc(-c3ccc(-c4c[nH]c([C@@H](NC(=O)C5CC(=O)c6ccccc6C5)C(C)(C)C)n4)cc3)cc2)c[nH]1 (some centres unmarked) [Compound S-256] | >100 fold |
| CCCC(C)(C)C(=O)N[C@H](c1nc(-c2ccc(-c3ccc(-c4c[nH]c([C@@H](NC(=O)C(C)(C)CCC)C(C)(C)C)n4)cc3)cc2)c[nH]1)C(C)(C)C [Compound S-281] | >100 fold |
| C[C@@H]1CN(C(C)(C)C(=O)N[C@H](c2nc(-c3ccc(-c4ccc(-c5c[nH]c([C@@H](NC(=O)C(C)(C)N6C[C@@H](C)O[C@@H](C)C6)C(C)(C)C)n5)cc4)cc3)c[nH]2)C(C)(C)C)C[C@H](C)O1 [Compound W-160] | >10 fold |
| CC(C)(C)[C@H](NC(=O)C1CC(=O)C1)c1nc(-c2ccc(-c3ccc(-c4c[nH]c([C@@H](NC(=O)C5CC(=O)C5)C(C)(C)C)n4)cc3)cc2)c[nH]1 [Compound W-171] | >100 fold |
| C[C@@H]1CCCCN1C(=O)C(C)(C)C(=O)N[C@H](c1nc(-c2ccc(-c3ccc(-c4c[nH]c([C@@H](NC(=O)C(C)(C)C(=O)N5CCCC[C@H]5C)C(C)(C)C)n4)cc3)cc2)c[nH]1)C(C)(C)C [Compound W-148] | >100 fold |
| CC(C)(C)OC(=O)N1C[C@H](F)C[C@H]1C(=O)N[C@H](c1nc(-c2ccc(-c3ccc(-c4c[nH]c([C@@H](NC(=O)[C@@H]5C[C@@H](F)CN5C(=O)OC(C)(C)C)C5(C)CC5)n4)cc3)cc2)c[nH]1)C1(C)CC1 [Compound W-182] | >100 fold |
| CC(C)(C)OC(=O)N1CCC(C(=O)N[C@H](c2nc(-c3ccc(-c4ccc(-c5c[nH]c([C@@H](NC(=O)C6CCN(C(=O)OC(C)(C)C)CC6)C(C)(C)C)n5)cc4)cc3)c[nH]2)C(C)(C)C)CC1 [Compound S-264] | >100 fold |
| CC(C)(C)OC(=O)N[C@]1(C(=O)N[C@H](c2nc(-c3ccc(-c4ccc(-c5c[nH]c([C@@H](NC(=O)[C@@]6(NC(=O)OC(C)(C)C)C[C@H]6CC(F)F)C(C)(C)C)n5)cc4)cc3)c[nH]2)C(C)(C)C)C[C@H]1CC(F)F [Compound W-1] | >100 fold |
| CC(C)(C)[C@H](NC(=O)C(F)(F)Sc1ccccc1)c1nc(-c2ccc(-c3ccc(-c4c[nH]c([C@@H](NC(=O)C(F)(F)Sc5ccccc5)C(C)(C)C)n4)cc3)cc2)c[nH]1 [Compound P-172] | >100 fold |
| O=C(N[C@H](c1nc(-c2ccc(-c3ccc(-c4c[nH]c([C@@H](NC(=O)C(=O)N5CCC(F)(F)CC5)C5CC5)n4)cc3)cc2)c[nH]1)C1CC1)C(=O)N1CCC(F)(F)CC1 [Compound L-37] | >100 fold |
| CN(C(=O)C(=O)N[C@H](c1nc(-c2ccc(-c3ccc(-c4c[nH]c([C@@H](NC(=O)C(=O)N(C)C5CC5)C(C)(C)C)n4)cc3)cc2)c[nH]1)C(C)(C)C)C1CC1 [Compound W-50] | >100 fold |
| O=C(C1CCC1)N1CCC[C@H]1c1ncc(-c2ccc(-c3ccc(-c4cnc([C@@H]5CCCN5C(=O)C5CCC5)[nH]4)cc3)cc2)[nH]1 [Compound S-162] | <10 fold |
| COC1(C(F)(F)C(=O)N[C@H](c2nc(-c3ccc(-c4ccc(-c5c[nH]c([C@@H](NC(=O)C(F)(F)C6(OC)CCCCC6)C(C)(C)C)n5)cc4)cc3)c[nH]2)C(C)(C)C)CCCCC1 [Compound P-167] | >100 fold |
| CC(C)(C)OC(=O)N1C[C@H](O)C[C@H]1C(=O)N[C@H](c1nc(-c2ccc(-c3ccc(-c4c[nH]c([C@@H](NC(=O)[C@@H]5C[C@@H](O)CN5C(=O)OC(C)(C)C)C5(C)CC5)n4)cc3)cc2)c[nH]1)C1(C)CC1 [Compound W-95] | >100 fold |
| O=C(C1Cc2ccccc21)N1CCC[C@H]1c1ncc(-c2ccc(-c3ccc(-c4cnc([C@@H]5CCCN5C(=O)C5Cc6ccccc65)[nH]4)cc3)cc2)[nH]1 (some centres unmarked) [Compound S-163] | <10 fold |
| CC(C)(C)[C@H](Nc1nc2ccccc2s1)c1nc(-c2ccc(-c3ccc(-c4c[nH]c([C@@H](Nc5nc6ccccc6s5)C(C)(C)C)n4)cc3)cc2)c[nH]1 [Compound W-183] | >10 fold |

| SMILES | Fold-Synergistic 1a (Q30E) |
| --- | --- |
| CC(C)(C)CC(=O)N1CCC[C@H]1c1ncc(-c2ccc(-c3ccc(-c4cnc([C@@H]5CCCN5C(=O)CC(C)(C)C)[nH]4)cc3)cc2)[nH]1 [Compound S-197] | <10 fold |
| C[C@@H]1CN(C(=O)C(=O)N[C@H](c2nc(-c3ccc(-c4ccc(-c5c[nH]c([C@@H](NC(=O)C(=O)N6C[C@@H](C)O[C@@H](C)C6)C6(C)CC6)n5)cc4)cc3)c[nH]2)C2(C)CC2)C[C@H](C)O1 [Compound W-61] | >100 fold |
| CC(C)(C)[C@H](NC(=O)C(F)(F)C1(O)CCC1)c1nc(-c2ccc(-c3ccc(-c4c[nH]c([C@@H](NC(=O)C(F)(F)C5(O)CCC5)C(C)(C)C)n4)cc3)cc2)c[nH]1 [Compound P-165] | >100 fold |
| C=C1CCC(C(=O)N[C@H](c2nc(-c3ccc(-c4ccc(-c5c[nH]c([C@@H](NC(=O)C6CCC(=C)CC6)C(C)(C)C)n5)cc4)cc3)c[nH]2)C(C)(C)C)CC1 [Compound N-118] | >100 fold |
| CC(C)[C@H](NC(=O)C(C)(C)N1C[C@@H](C)O[C@@H](C)C1)c1nc(-c2ccc(-c3ccc(-c4c[nH]c([C@@H](NC(=O)C(C)(C)N5C[C@@H](C)O[C@@H](C)C5)C(C)C)n4)cc3)cc2)c[nH]1 [Compound W-161] | >100 fold |
| COc1ccc(C2(C(=O)N3CCC[C@H]3c3ncc(-c4ccc(-c5ccc(-c6cnc([C@@H]7CCCN7C(=O)C7(c8ccc(OC)cc8)CCCC7)[nH]6)cc5)cc4)[nH]3)CCCC2)cc1 [Compound S-158] | <10 fold |
| CC1([C@H](NC(=O)[C@@]2(C)CC(F)(F)CO2)c2nc(-c3ccc(-c4ccc(-c5c[nH]c([C@@H](NC(=O)[C@@]6(C)CC(F)(F)CO6)C6(C)CC6)n5)cc4)cc3)c[nH]2)CC1 [Compound Y-83] | >100 fold |
| CC(C)(CF)C(=O)N[C@H](c1nc(-c2ccc(-c3ccc(-c4c[nH]c([C@@H](NC(=O)C(C)(C)CF)C5(C)CC5)n4)cc3)cc2)c[nH]1)C1(C)CC1 [Compound P-143] | >100 fold |
| C[C@@H](OC(=O)N(C)C1(C(=O)N[C@H](c2nc(-c3ccc(-c4ccc(-c5c[nH]c([C@@H](NC(=O)C6(N(C)C(=O)O[C@H](C)C(F)(F)F)CC6)C6(C)CC6)n5)cc4)cc3)c[nH]2)C2(C)CC2)CC1)C(F)(F)F [Compound L-92] | >100 fold |
| CC(C)[C@H](NC(=O)C(=O)N1CCC(C(F)(F)F)CC1)c1nc(-c2ccc(-c3ccc(-c4c[nH]c([C@@H](NC(=O)C(=O)N5CCC(C(F)(F)F)CC5)C(C)C)n4)cc3)cc2)c[nH]1 [Compound W-53] | >100 fold |
| CCC(C)[C@H](NC(=O)CC(C)C)c1nc(-c2ccc(-c3ccc(-c4c[nH]c([C@@H](NC(=O)CC(C)C)C(C)CC)n4)cc3)cc2)c[nH]1 (some centres unmarked) [Compound N-34] | >100 fold |
| COC(=O)N[C@H](C(=O)N[C@H](c1nc(-c2ccc3cc(-c4ccc(-c5cnc([C@@H](NC(=O)[C@@H](NC(=O)OC)C(C)C)C(C)C)[nH]5)cc4)ccc3c2)c[nH]1)C(C)C)C(C)C [Compound P-1] | <10 fold |
| CC(C)(C)OC(=O)N1CCCCC1(C)C(=O)N[C@H](c1nc(-c2ccc(-c3ccc(-c4c[nH]c([C@@H](NC(=O)C5(C)CCCCN5C(=O)OC(C)(C)C)C(C)(C)C)n4)cc3)cc2)c[nH]1)C(C)(C)C (stereo partly drawn) [Compound L-46a] | >100 fold |
| CC(C)(C)[C@H](NC(=O)C(=O)c1cccs1)c1nc(-c2ccc(-c3ccc(-c4c[nH]c([C@@H](NC(=O)C(=O)c5cccs5)C(C)(C)C)n4)cc3)cc2)c[nH]1 [Compound W-19] | >100 fold |
| CC1(C)OC(=O)CC1C(=O)N[C@H](c1nc(-c2ccc(-c3ccc(-c4c[nH]c([C@@H](NC(=O)C5CC(=O)OC5(C)C)C(C)(C)C)n4)cc3)cc2)c[nH]1)C(C)(C)C (some centres unmarked) [Compound S-279] | >10 fold |
| CC(C)(C)OC(=O)N[C@@H]1CCCC(C(=O)N[C@H](c2nc(-c3ccc(-c4ccc(-c5c[nH]c([C@@H](NC(=O)C6CCC[C@@H](NC(=O)OC(C)(C)C)C6)C(C)(C)C)n5)cc4)cc3)c[nH]2)C(C)(C)C)C1 (some centres unmarked) [Compound S-266] | >100 fold |
| CC(C)(C(=O)N[C@H](c1nc(-c2ccc(-c3ccc(-c4c[nH]c([C@@H](NC(=O)C(C)(C)C(=O)N5CCC(F)CC5)C(C)(C)C)n4)cc3)cc2)c[nH]1)C(C)(C)C)C(=O)N1CCC(F)CC1 [Compound W-142] | >100 fold |
| CC(C)(C)[C@H](NC(=O)[C@H]1[C@@H]2COC[C@@H]21)c1nc(-c2ccc(-c3ccc(-c4c[nH]c([C@@H](NC(=O)[C@H]5[C@@H]6COC[C@@H]65)C(C)(C)C)n4)cc3)cc2)c[nH]1 [Compound L-67] | >100 fold |
| CC(C)(C)OC(=O)N1CC2(CC2)C[C@H]1C(=O)N[C@H](c1nc(-c2ccc(-c3ccc(-c4c[nH]c([C@@H](NC(=O)[C@@H]5CC6(CC6)CN5C(=O)OC(C)(C)C)C(C)(C)C)n4)cc3)cc2)c[nH]1)C(C)(C)C [Compound W-94] | >100 fold |
